Where two headings read alike, the source gives them in different places.

One data set concerns olKmt2d. The data set is described as follows: Kmt2d morpholino injection in medaka embryos (in vivo model for KS). Also on record: species or system Oryzias latipes. As to conditions: MO-Kmt2d injected at 0.015 mM, of 1,600 injected embryos, later developmental stages. The procedure:
(§1) The Cab-strain of wt medaka fish (Oryzias latipes) was maintained following standard conditions (i.e., 12 h/12 h dark/light conditions at 27° C.). Embryos were staged according to the method proposed by Iwamatsu. All studies on fish were conducted in strict accordance with the institutional guidelines for animal research and approved by the Italian Ministry of Health: Department of Public Health, Animal Health, Nutrition, and Food Safety.
(§2) The available medaka olKmt2d (ENSORLT00000009505.1) genomic sequences were retrieved from a public database (UCSC Genome Browser, http://genome.ucsc.edu/) from human KMT2D (NM_003482.3) transcript. A morpholino (Mo: Gene Tools LLC, Oregon, USA) was designed against the ATG initiation codon within the 5′ untranslated region of the medaka ortholog of the (MO-Kmt2d: 5′-[…]-3′) of the medaka orthologous of the KMT2D gene. The specificity and inhibitory efficiencies of morpholino was determined as previously described (Conte et al., 2015). MO-Kmt2d was injected at 0.015 mM concentration into one blastomere at the one/two-cell stage. Off-target effects of the morpholino injections were excluded by repeated experiments with control morpholino or by co-injection with a p53 morpholino. For the drug treatment, chorions from injected and control embryos were removed with the hatching enzyme at St32. […]

The test system of the next data set is Kmt2d morphants. It counts as in vivo. As to conditions: Kmt2d morphant medaka embryos grown in 0.15 μM VE822. The procedure:
as §1, §2

Data set [1] relates to MLL4^Q4092X MSCs. The data set is described as follows: Gene expression profiling (RNA-seq) of MSCs after VE-822 treatment. As to conditions: 8 and 24 hours after ATR inhibition. It counts as cell-based, human. The procedure:
WT and MLL^4Q4092X MSCs were seeded as sparse (5000 cells/cm^2) condition and collected 48 h after plating, either untreated or at 8 and 24 hours after ATR inhibition (VE-822 treatment) (medchem express #HY-13902/cs-1861). Cells were directly lysed on plates with TRIzol (Thermo Fisher cat. #15596026), and total RNAs were extracted according to the manufacturer's instructions.
Contaminating genomic DNA was removed by DNase (Qiagen 843 cat. #79254) digestion. RNA quality and concentration were assessed using the 2100 Bioanalyzer (Agilent cat. #G2939BA) and the Qubit fluorometer (Thermo Fisher cat. #Q33226), respectively. 3′-RNA-seq libraries were prepared by using the QuantSeq 3′ mRNA-Seq Library Prep Kit FWD for Illumina (Lexogen cat. #015.24) and starting from 500 ng of total RNA. Libraries were sequenced as single reads of 50 bp with the Illumina HiSeq2500. Three independent biological replicates were performed for each cell line and time point and sequenced as independent libraries.
Raw reads from fastq files were first checked for their quality using FastQC and trimmed using Trimmomatic (Bolger et al., 2014). Trimmed reads were aligned to the reference human genome assembly hg38/GRCh38 using STAR with default parameters. […] For annotation of the reads to the genome, HOMER was employed with the following command ‘analyzeRepeats.pl rna hg38-count 3utr-rpkm’. […]

For data set [2], the system named is MLL4^Q4092X MSCs. The experiment in a line: Nuclear to cytosolic localization of YAP/TAZ by immunofluorescence. It counts as cell-based, human. As to conditions: sparse condition. The procedure:
Cell lines used in this study include NIH 3T3 (ATCC), HEK293T (ATCC), human primary fibroblasts derived from either healthy of Kabuki patients (Genomic and Genetic Disorders Biobank) and hTERT-immortalized human adipose-derived MSCs. Primary fibroblasts, NIH3T3 and HEK293T were maintained at 37° C. and 5% CO2 in DMEM medium supplemented with 10% Fetal Bovine Serum (Euroclone #ECS0180L), while MSCs were cultured in 1:1 DMEM/F-12 medium (Gibco #11320-074) supplemented with 10% Fetal Bovine Serum (Euroclone #ECS0180L).
For immunofluorescence assays, cells were seeded on coverslips coated with 0.1% gelatin (Sigma Aldrich #G1393). When needed, cells where fixed with 4% paraformaldeide for minutes at 4° C. […]
To quantify the nuclear to cytosolic localization of YAP-TAZ, the inventors adapted previously published MATLAB routines (Zambrano et al., 2016). […]
To estimate the average cytosolic intensity per cell, a ring of 30 pixels width (approximately 7 microns) around each segmented nuclei was found. […] The inventors then calculated for each cell the Nuclear to Cytosolic Intensity (NCI) as the ratio of the background corrected nuclear and cytosolic average YAP-TAZ intensity.

Data set [3] deals with MLL4^Q4092X MSCs. The experiment in a line: DNA damage response in MSCs after ATR inhibition (immunofluorescence). It counts as cell-based, human. As to conditions: MLL4^Q4092X MSCs treated with ATR inhibitor. The procedure: (§3) For immunofluorescence assays, cells were seeded on coverslips coated with 0.1% gelatin (Sigma Aldrich #G1393). When needed, cells where fixed with 4% paraformaldeide for […] at 4° C. Coverslips were processed as described: permeabilization and blocking with PBS/1% BSA/5% goat serum/0.5% Triton X-100 (blocking solution) for 1 hour at room temperature, followed by incubation with primary antibody (diluted in the blocking solution) for 2 hours at RT (or overnight at 4° C., depending on the used primary antibody), 3-5 washes in PBS and incubation with secondary antibodies (diluted in the blocking solution), DRAQ5 for nuclear staining and phalloidin-TRITC for 1 h at room temperature. Images were acquired using a Leica TCS SP5 confocal microscope with HCX PL APO 63×/1.40 objective. Confocal z stacks were acquired with sections of 0.5 μm. In cases where image analysis was performed, image acquisition settings were kept constant.

Data set [4] deals with MLL4^Q4092X MSCs. The experiment in a line: Chondrocyte micromass differentiation of MSCs (Alcian blue). It is filed as cell-based, human. As to conditions: in vitro. The procedure:
For chondrocyte micromass culture, a cell solution of 1.6× 10^7 viable cells/mL was produced. Micromass cultures were generated by seeding 5-μL droplets of cell solution. After cultivating micromass cultures for 2 hours under high humidity conditions, MSCs medium was added. The day after, the medium was changed with chondrogenesis medium (Gibco #A10069-01) supplemented with Stem-Pro Chondrogenesis supplement (Gibco #10064-01). For complete differentiation, cells were maintained in culture for three weeks changing media regularly.
To detect chondrogenesis, cells were washed with PBS and fixed in 4% formaldehyde for 1 hr at RT and then washed with PBS. Cells were incubated with Alcian blue solution (1 g/L in 0.1 M HCl, Sigma-Aldrich #B8438) for 6 hrs at room temperature and then extensively washed with PBS. To measure Alcian blue deposition, dry wells were incubated with 1 mL of 6 N Guanidine HCl for 1 hour and then the absorbance was measured with a spectofotometer measured between 600 and 650 nm.

Data set [5] relates to MLL4^Q4092X MSCs. The experiment in a line: Nuclear morphology, chromatin compaction and Lamin A/C after HDAC inhibitor treatment. It counts as cell-based, human. The procedure: as §3
Confocal imaging data analyses were performed using Image J software. For 2D/3D analysis RDAQ5 DNA dye was used to identify the nucleus and define the ROI. Then the fluorescence intensity and physical parameters were determined. For the measure of volume and flatness the inventors performed a 3D analyses using the “3D plugin 596 suite”, an Image J plugin.

Data set [6] concerns MLL4^Q4092X MSCs. The experiment in a line: H3K27me3 level and PcG condensate clustering after HDAC inhibitor treatment. It counts as cell-based, human. The procedure:
as §3
In order to automatically detect and quantify PcG and TrxG complex proteins in fluorescence cell image z-stacks, the inventors developed an algorithm that implements a method derived from (Gregoretti et al., 2016) with variants and adaptations. The algorithm performs the 2D segmentation of cell nuclei and the detection of Protein Bodies (PBs) for each slice of the stack, followed by the 3D reconstruction and identification of nuclei and PBs. […]

“MO-Kmt2d: morpholino against the ATG initiation codon of medaka Kmt2d, 5′-CCCTGCTGCTGCTTTGATCTTTTTG-3′ (all phosphorodiamidate morpholino (PMO))”: the “embryos with morphological cranio-facial anomalies” value in the data set on olKmt2d amounted to 73±5%.
Regarding `CNCc1ccc(-c2cc(-c3nc(-c4ccc(S(=O)(=O)C(C)C)cc4)cnc3N)on2)cc1` [VE-822, BERZOSERTIB], the “chondrogenic and skeleton defects, head morphogenesis” value in the data set with Kmt2d morphants (listed as ATR inhibitor) is “sufficient to restore the chondrogenic and skeleton defects”; in the data set with Kmt2d morphants (listed as VX-970), “sufficient to completely recover the chondrogenic and osteogenic defects”. Also, the “expression of a subset of ATR responsive genes (architectural chromatin genes)” value with MLL4^Q4092X MSCs [1] is “rescued”. Also, the “YAP/TAZ nuclear localization (mechanical properties of MSCs)” value with MLL4^Q4092X MSCs [2] is given as “restored YAP/TAZ nuclear localization”; in the data set with MLL4^Q4092X MSCs [2] (listed as VX-970), “sufficient to restore the mechanical properties”. The DNA damage response entry in the data set on MLL4^Q4092X MSCs [3] was “without affecting DNA damage response”. Further, the chondrogenic differentiation potential entry in the data set with MLL4^Q4092X MSCs [4] (listed as ATR inhibitor) is reported as “partially rescued”; with MLL4^Q4092X MSCs [4] (listed as VX-970), “sufficient to abolish the differentiation defects”.
`CC(/C=C/C(=O)NO)=C\[C@@H](C)C(=O)c1ccc(N(C)C)cc1` [TSA]: in the data set with MLL4^Q4092X MSCs [5], the “chromatin organization and nuclear architecture” value is “rescued the altered chromatin organization and nuclear architecture”; the “nuclear morphology and structure (relative abundance of Lamin A/C)” value was “sufficient to re-establish proper nuclear morphology and structure”. Moreover, in the data set on MLL4^Q4092X MSCs [6], the H3K27me3 level result is on record as “reduced” and the “clustering of PcG condensates” value was “reduced”.

Source of the values: patent publication US20240285616A1, “THERAPEUTIC TREATMENT OF CHROMATINOPATHIES” (UNIVERSITA' DEGLI STUDI DI TRENTO, priority 2020, published 2024).
